Reference: patent US11084783B2, “O-alkyl-benzylideneguanidine derivatives and therapeutic use for the treatment of disorders associated with an accumulation of misfolded proteins” (INFLECTIS BIOSCIENCE, priority 2014, dated 2021)

Experiments:
Type in all cases: cell-based
[1] = test system: rotenone injured primary mesencephalic rat neurons; assay: In vitro Parkinson's disease model: rotenone injured primary mesencephalic rat neurons; details: rotenone 10 nM, 24 hours; total number of TH positive neurons
Protocol: Rat dopaminergic neurons were cultured as described by Schinelli et al., (1988 J. Neurochem 50 pp1900-07) and Visanji et al., (2008 FASEB J. 22(7) pp2488-97). Briefly, the midbrains obtained from 15-day old rat embryos (Janvier Labs, France) were dissected under a microscope. The embryonic midbrains were removed and placed in ice-cold medium of Leibovitz (L15, Pan Biotech, Batch: 9310614) containing 2% of Penicillin-Streptomycin (PS, Pan Biotech, Batch: 1451013) and 1% of bovine serum albumin (BSA, Pan Biotech, Batch: h140603). The ventral portion of the mesencephalic flexure, a region of the developing brain rich in dopaminergic neurons, was used for the cell preparations.
The midbrains were dissociated by trypsinisation for 20 min at 37° C. (Trypsin 0.05% EDTA 0.02%, PanBiotech, Batch: 5890314). The reaction was stopped by the addition of Dulbecco's modified Eagle's medium (DMEM, PanBiotech, Batch: 1300714) containing DNAase I grade II (0.1 mg/ml, PanBiotech, Batch: H140508) and 10% of foetal calf serum (FCS, Gibco, Batch: 41Q7218K). Cells were then mechanically dissociated by 3 passages through a 10 ml pipette. Cells were then centrifuged at 180×g for 10 min at +4° C. on a layer of BSA (3.5%) in L15 medium. The supernatant was discarded and the cell pellets were re-suspended in a defined culture medium consisting of Neurobasal (Invitrogen, Batch: 1636133) supplemented with B27 (2%, Invitrogen, Batch: 1660670), L-glutamine (2 mM, PanBiotech, Batch: 8150713) and 2% of PS solution and 10 ng/ml of Brain-derived neurotrophic factor (BDNF, PanBiotech, Batch: H140108) and 1 ng/ml of Glial-Derived Neurotrophic Factor (GDNF, Pan Biotech, Batch: H130917). Viable cells were counted in a Neubauer cytometer using the trypan blue exclusion test. The cells were seeded at a density of 40 000 cells/well in 96 well-plates pre-coated with poly-L-lysine (Corning Biocoat, Batch: 6614022) and maintained in a humidified incubator at 37° C. in 5% CO2/95% air atmosphere. Half of the medium was changed every 2 days with fresh medium.
On day 6 of culture, the medium was removed and fresh medium was added, without or with rotenone (Sigma, Batch: 021M2227V) at 10 nM diluted in control medium, 3 wells per condition were assessed. […]
The immunolabeled cultures were automatically examined with ImageXpress (Molecular device USA). For each condition, 20 automatically fields per well (representing ˜80% of the total surface of the well) from 3 wells were analyzed. The total number of TH neurons was automatically analyzed using Custom module editor (Molecular Devices, USA). […] All values were expressed as mean +/−SEM (s.e. mean) of the 1 culture (n=3 wells per condition per culture).

[2] = test system: T181P mutated DM20 protein expressed in Human 293T cell; assay: In vitro model of leukodystrophy (PMD): overexpression of mutated DM20, protein accumulation by western-blot; details: 5 microM, western-blot 48h
Protocol: Human open reading frame (ORF) sequences for PLP1, DM20 and Insulin were obtained from Life Technologies (Invitrogen) (IOH41689, IOH5252 and IOH7334 respectively). Construct cloning into the expression plasmid pDEST26 (Invitrogen) was performed by Gateway® LR Clonase™ II Enzyme Mix (Invitrogen). ORF mutations were carried out using the QuikChange Lightning Site-Directed Mutagenesis Kit (Stratagene) (T181P mutation for PLP1 and DM20 ORFs, Akita (C96Y) for Insulin ORF).
One day before transfection, 293T cells were plated at 300,000 cells/mL. 293T cells were transfected with PLP1 and DM20 mutant constructs using Lipofectamine 2000 according to manufacturer's procedure. After transfection, cells were treated with molecules or left untreated.
As a control, cells were transfected with native forms of the proteins. 48h later, cellular lysates were harvested. Protein accumulation was assessed by western-blot.

[3] = test system: Min6 insulinoma cell; assay: Min6 cell line cytoprotection from ER stress (tunicamycin); details: 6 hour exposure to tunicamycin 2.5 μg/mL, different concentrations, viability 72h
Protocol: Cells were plated in 96 well plates at a density of 0.5.10^6 cells/mL for Min6 cell line, 0,4.10^6 cells/mL for INS1 cell line the day before the treatment. ER stress was elicited by addition of 2.5 μg/mL tunicamycin (Sigma Aldrich) together with phosphatases inhibitors. Media were changed 6h later with fresh media and the cytoprotection was maintained by the addition of phosphatases inhibitors. Cell viability was assessed by measuring the reduction of WST-8 into formazan using Cell Counting Kit-8 (Sigma) according to the supplier's recommendation, 72h after tunicamycin treatment.

CCCONC(=N)N/N=C/c1ccccc1Cl [Compound 12, 2-(2-chlorobenzylidene)-N-propoxyhydrazinecarboximidamide]
protection of rotenone injured primary mesencephalic rat neurons (FIG. 3) [1]: dose dependent protection
prevention of accumulation of T181P mutated DM20 protein (FIG. 5) [2]: able to prevent the accumulation
prevention of Min6 insulinoma cell death (FIG. 7) [3]: prevent Min6 insulinoma cell death

CCONC(=N)N/N=C/c1c(F)cccc1Cl [Compound 17, 2-(2-chloro-6-fluorobenzylidene)-N-ethoxyhydrazinecarboximidamide]
protection of rotenone injured primary mesencephalic rat neurons (FIG. 3) [1]: dose dependent protection
prevention of accumulation of T181P mutated DM20 protein (FIG. 5) [2]: able to prevent the accumulation
prevention of Min6 insulinoma cell death (FIG. 7) [3]: prevent Min6 insulinoma cell death

CCONC(=N)N/N=C/c1c(Cl)cccc1Cl [Compound 11, 2-(2,6-dichlorobenzylidene)-N-ethoxyhydrazinecarboximidamide]
protection of rotenone injured primary mesencephalic rat neurons (FIG. 3) [1]: dose dependent protection
